Measured values published in ChEMBL document CHEMBL4000250, “Synthesis of new derivatives of 21-imidazolyl-16-dehydropregnenolone as inhibitors of 5α-reductase 2 and with cytotoxic activity in cancer cells” (Bioorg Med Chem, 2017).
Activity calls are given as the source filed them. The rule behind the calls is not given here.

The compounds below were run on Syrian golden hamster (assay: Toxicity in castrated golden hamster at 2 mg/kg, sc co-administered with testosterone for 6 days). Conditions: in vivo, 144 h.
Type: organism-based, Mesocricetus auratus

Row | Structure (SMILES) | Activity
1 | C[C@]12CC[C@H](OC(=O)C3CC3)CC1=CC[C@@H]1[C@@H]2CC[C@]2(C)C(C(=O)Cn3ccnc3)=CC[C@@H]12 | Non-Toxic
2 | C[C@]12CC[C@H](OC(=O)C3CCC3)CC1=CC[C@@H]1[C@@H]2CC[C@]2(C)C(C(=O)Cn3ccnc3)=CC[C@@H]12 | Non-Toxic
3 | C[C@]12CC[C@H](OC(=O)C3CCCCCC3)CC1=CC[C@@H]1[C@@H]2CC[C@]2(C)C(C(=O)Cn3ccnc3)=CC[C@@H]12 | Non-Toxic

The compounds below were run against T1, 3-oxo-5-alpha-steroid 4-dehydrogenase 1 (Rattus norvegicus, UniProt P24008) (assay: Inhibition of rat liver microsomal 5-alpha reductase 1 assessed as decrease in conversion of testosterone to dihydrotestosterone by chromatographic method). Conditions: not given.
T1 sequence (P24008 whole entry): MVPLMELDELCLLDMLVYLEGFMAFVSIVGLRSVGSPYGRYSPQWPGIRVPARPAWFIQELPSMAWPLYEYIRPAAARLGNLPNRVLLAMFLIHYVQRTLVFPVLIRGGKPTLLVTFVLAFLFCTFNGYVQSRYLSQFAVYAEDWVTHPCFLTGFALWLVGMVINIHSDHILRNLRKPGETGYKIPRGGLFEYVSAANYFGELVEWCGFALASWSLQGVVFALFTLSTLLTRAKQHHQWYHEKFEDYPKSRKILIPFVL

Row | Structure (SMILES) | IC50
4 | C[C@]12CC[C@H](OC(=O)C3CC3)CC1=CC[C@@H]1[C@@H]2CC[C@]2(C)C(C(=O)Cn3ccnc3)=CC[C@@H]12 | Not Active
5 | C[C@]12CC[C@H](OC(=O)C3CCC3)CC1=CC[C@@H]1[C@@H]2CC[C@]2(C)C(C(=O)Cn3ccnc3)=CC[C@@H]12 | Not Active
6 | C[C@]12CC[C@H](OC(=O)C3CCCCCC3)CC1=CC[C@@H]1[C@@H]2CC[C@]2(C)C(C(=O)Cn3ccnc3)=CC[C@@H]12 | Not Active

The compounds below were run on Syrian golden hamster (assay: Hyperplasia activity in castrated golden hamster assessed as prostate weight at 2 mg/kg, sc co-administered with testosterone for 6 days (reference value: 98 +/- 12.6 mg)). Conditions: not given.
Type: functional, Mesocricetus auratus

Row | Structure (SMILES) | Activity [mg]
7 | C[C@]12CC[C@H](OC(=O)C3CC3)CC1=CC[C@@H]1[C@@H]2CC[C@]2(C)C(C(=O)Cn3ccnc3)=CC[C@@H]12 | 77.1
8 | C[C@]12CC[C@H](OC(=O)C3CCC3)CC1=CC[C@@H]1[C@@H]2CC[C@]2(C)C(C(=O)Cn3ccnc3)=CC[C@@H]12 | 71.3
9 | C[C@]12CC[C@H](OC(=O)C3CCCCCC3)CC1=CC[C@@H]1[C@@H]2CC[C@]2(C)C(C(=O)Cn3ccnc3)=CC[C@@H]12 | 70.8

The compounds below were run on SK-LU-1 (assay: Cytotoxicity against human SKLU1 cells assessed as growth inhibition at 50 uM after 48 hrs by sulforhodamine B assay relative to control). Conditions: not given.
Type: functional

Row | Structure (SMILES) | growth inhibition (GI)
10 | C[C@]12CC[C@H](OC(=O)C3CC3)CC1=CC[C@@H]1[C@@H]2CC[C@]2(C)C(C(=O)Cn3ccnc3)=CC[C@@H]12 | inactive
11 | C[C@]12CC[C@H](OC(=O)C3CCC3)CC1=CC[C@@H]1[C@@H]2CC[C@]2(C)C(C(=O)Cn3ccnc3)=CC[C@@H]12 | inactive
12 | C[C@]12CC[C@H](OC(=O)C3CCCCCC3)CC1=CC[C@@H]1[C@@H]2CC[C@]2(C)C(C(=O)Cn3ccnc3)=CC[C@@H]12 | inactive

These compounds were tested against T2, 3-oxo-5-alpha-steroid 4-dehydrogenase 2 (Homo sapiens, UniProt P31213) (assay: Inhibition of human prostate 5-alpha reductase 2 assessed as decrease in conversion of testosterone to dihydrotestosterone by chromatographic method). Conditions: not given.
T2 sequence (P31213 whole entry): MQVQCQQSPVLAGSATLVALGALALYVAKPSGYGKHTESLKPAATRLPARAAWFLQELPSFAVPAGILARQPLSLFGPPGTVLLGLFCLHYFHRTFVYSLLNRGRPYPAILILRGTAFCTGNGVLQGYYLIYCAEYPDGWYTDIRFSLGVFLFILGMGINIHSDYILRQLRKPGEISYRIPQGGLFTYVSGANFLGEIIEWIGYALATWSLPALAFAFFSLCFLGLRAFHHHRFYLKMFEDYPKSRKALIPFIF

Row | Structure (SMILES) | IC50
13 | C[C@]12CC[C@H](OC(=O)C3CCCCCC3)CC1=CC[C@@H]1[C@@H]2CC[C@]2(C)C(C(=O)Cn3ccnc3)=CC[C@@H]12 | Not Active

Same assay, conditions: read-out: IC50

Row | Structure (SMILES) | IC50 [nM]
14 | C[C@]12CC[C@H](OC(=O)C3CC3)CC1=CC[C@@H]1[C@@H]2CC[C@]2(C)C(C(=O)Cn3ccnc3)=CC[C@@H]12 | 711
15 | C[C@]12CC[C@H](OC(=O)C3CCC3)CC1=CC[C@@H]1[C@@H]2CC[C@]2(C)C(C(=O)Cn3ccnc3)=CC[C@@H]12 | 76.4

Each compound was assayed on MCF7 (assay: Cytotoxicity against human MCF7 cells assessed as growth inhibition at 50 uM after 48 hrs by sulforhodamine B assay relative to control). Conditions: not given.
Type: functional

Row | Structure (SMILES) | growth inhibition (GI)
16 | C[C@]12CC[C@H](OC(=O)C3CC3)CC1=CC[C@@H]1[C@@H]2CC[C@]2(C)C(C(=O)Cn3ccnc3)=CC[C@@H]12 | inactive
17 | C[C@]12CC[C@H](OC(=O)C3CCC3)CC1=CC[C@@H]1[C@@H]2CC[C@]2(C)C(C(=O)Cn3ccnc3)=CC[C@@H]12 | inactive
18 | C[C@]12CC[C@H](OC(=O)C3CCCCCC3)CC1=CC[C@@H]1[C@@H]2CC[C@]2(C)C(C(=O)Cn3ccnc3)=CC[C@@H]12 | inactive

These compounds were tested on PC-3 (assay: Cytotoxicity against human PC3 cells assessed as growth inhibition at 50 uM after 48 hrs by sulforhodamine B assay relative to control). Conditions: not given.
Type: functional

Row | Structure (SMILES) | growth inhibition (GI)
19 | C[C@]12CC[C@H](OC(=O)C3CC3)CC1=CC[C@@H]1[C@@H]2CC[C@]2(C)C(C(=O)Cn3ccnc3)=CC[C@@H]12 | inactive
20 | C[C@]12CC[C@H](OC(=O)C3CCC3)CC1=CC[C@@H]1[C@@H]2CC[C@]2(C)C(C(=O)Cn3ccnc3)=CC[C@@H]12 | inactive
21 | C[C@]12CC[C@H](OC(=O)C3CCCCCC3)CC1=CC[C@@H]1[C@@H]2CC[C@]2(C)C(C(=O)Cn3ccnc3)=CC[C@@H]12 | inactive

The compounds below were run against T3, Androgen receptor (Rattus norvegicus) (UniProt P15207) (assay: Displacement of [3H]-MIB from rat prostate cytosolic androgen receptor by liquid scintillation counting method). Conditions: not given.
T3 sequence (whole entry): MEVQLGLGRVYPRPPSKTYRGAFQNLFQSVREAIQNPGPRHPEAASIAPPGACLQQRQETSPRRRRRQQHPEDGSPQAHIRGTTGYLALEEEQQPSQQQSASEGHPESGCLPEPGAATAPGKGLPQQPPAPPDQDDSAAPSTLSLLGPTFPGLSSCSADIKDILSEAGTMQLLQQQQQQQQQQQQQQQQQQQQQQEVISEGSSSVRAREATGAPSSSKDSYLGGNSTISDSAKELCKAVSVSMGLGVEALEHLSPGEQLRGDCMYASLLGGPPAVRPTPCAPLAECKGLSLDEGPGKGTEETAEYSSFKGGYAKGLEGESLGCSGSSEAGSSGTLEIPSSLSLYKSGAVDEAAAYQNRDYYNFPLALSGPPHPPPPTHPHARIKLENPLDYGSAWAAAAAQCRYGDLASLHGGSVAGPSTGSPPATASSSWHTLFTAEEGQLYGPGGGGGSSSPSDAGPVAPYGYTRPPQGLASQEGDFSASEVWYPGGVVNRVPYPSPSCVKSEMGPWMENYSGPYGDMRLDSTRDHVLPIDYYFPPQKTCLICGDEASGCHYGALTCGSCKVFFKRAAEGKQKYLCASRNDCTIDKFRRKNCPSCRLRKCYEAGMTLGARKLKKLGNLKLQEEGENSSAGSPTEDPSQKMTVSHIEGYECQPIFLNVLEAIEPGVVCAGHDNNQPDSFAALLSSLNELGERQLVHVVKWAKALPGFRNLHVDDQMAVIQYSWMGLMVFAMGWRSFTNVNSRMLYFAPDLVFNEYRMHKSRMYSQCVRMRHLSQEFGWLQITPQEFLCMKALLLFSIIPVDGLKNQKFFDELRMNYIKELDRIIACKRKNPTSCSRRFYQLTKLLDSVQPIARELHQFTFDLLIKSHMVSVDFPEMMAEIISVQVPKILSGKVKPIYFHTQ

Row | Structure (SMILES) | inhibition
22 | C[C@]12CC[C@H](OC(=O)C3CC3)CC1=CC[C@@H]1[C@@H]2CC[C@]2(C)C(C(=O)Cn3ccnc3)=CC[C@@H]12 | inactive
23 | C[C@]12CC[C@H](OC(=O)C3CCC3)CC1=CC[C@@H]1[C@@H]2CC[C@]2(C)C(C(=O)Cn3ccnc3)=CC[C@@H]12 | inactive
24 | C[C@]12CC[C@H](OC(=O)C3CCCCCC3)CC1=CC[C@@H]1[C@@H]2CC[C@]2(C)C(C(=O)Cn3ccnc3)=CC[C@@H]12 | inactive

The compounds below were run on Syrian golden hamster (assay: Hyperplasia activity in castrated golden hamster assessed as seminal vesicles weight at 2 mg/kg, sc co-administered with testosterone for 6 days (reference value: 200.6 +/- 55 mg)). Conditions: not given.
Type: functional, Mesocricetus auratus

Row | Structure (SMILES) | Activity [mg]
25 | C[C@]12CC[C@H](OC(=O)C3CC3)CC1=CC[C@@H]1[C@@H]2CC[C@]2(C)C(C(=O)Cn3ccnc3)=CC[C@@H]12 | 160.9
26 | C[C@]12CC[C@H](OC(=O)C3CCC3)CC1=CC[C@@H]1[C@@H]2CC[C@]2(C)C(C(=O)Cn3ccnc3)=CC[C@@H]12 | 145.2
27 | C[C@]12CC[C@H](OC(=O)C3CCCCCC3)CC1=CC[C@@H]1[C@@H]2CC[C@]2(C)C(C(=O)Cn3ccnc3)=CC[C@@H]12 | 143.6

The compounds below were run on Syrian golden hamster (assay: Hyperplasia activity in castrated golden hamster assessed as diameter of pigmented spot of flank organs at 2 mg/kg, sc administered for 6 days (reference value: 5.65 +/- 1.12 mm)). Conditions: not given.
Type: functional, Mesocricetus auratus

Row | Structure (SMILES) | Activity [mm]
28 | C[C@]12CC[C@H](OC(=O)C3CC3)CC1=CC[C@@H]1[C@@H]2CC[C@]2(C)C(C(=O)Cn3ccnc3)=CC[C@@H]12 | 3.4
29 | C[C@]12CC[C@H](OC(=O)C3CCC3)CC1=CC[C@@H]1[C@@H]2CC[C@]2(C)C(C(=O)Cn3ccnc3)=CC[C@@H]12 | 3
30 | C[C@]12CC[C@H](OC(=O)C3CCCCCC3)CC1=CC[C@@H]1[C@@H]2CC[C@]2(C)C(C(=O)Cn3ccnc3)=CC[C@@H]12 | 2.8
